In patent US8153385B2, “Target protein and target gene in drug designing and screening method” (Reverse Proteomics Research Institute Co., Ltd., priority 2004, dated 2012):
Counter-ions that a name gives are not always drawn.

Molecular target: T1, FLJ13397 clone-derived protein (CARP) (Homo sapiens, UniProt Q9H8M7)
T1 construct: A human full-length cDNA clone was expressed as a protein with an N-terminal His tag; His tag (pDEST17 Gateway vector) (N); made in house; host or cells: Escherichia coli BL21star(DE3)pLysS
T1 sequence (Q9H8M7 1-445): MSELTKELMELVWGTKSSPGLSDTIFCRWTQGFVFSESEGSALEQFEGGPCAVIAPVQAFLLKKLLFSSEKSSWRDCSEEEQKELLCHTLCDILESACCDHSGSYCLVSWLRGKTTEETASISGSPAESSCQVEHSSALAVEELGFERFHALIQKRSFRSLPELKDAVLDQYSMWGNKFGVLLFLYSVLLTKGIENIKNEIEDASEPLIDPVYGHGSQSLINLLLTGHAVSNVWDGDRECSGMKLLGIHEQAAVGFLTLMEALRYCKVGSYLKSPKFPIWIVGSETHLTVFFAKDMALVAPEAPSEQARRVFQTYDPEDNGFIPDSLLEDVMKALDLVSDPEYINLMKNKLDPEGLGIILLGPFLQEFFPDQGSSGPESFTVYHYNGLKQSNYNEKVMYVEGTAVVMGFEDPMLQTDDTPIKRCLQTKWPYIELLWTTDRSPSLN
Assay: SEC/MS (size exclusion chromatography / mass analysis) interaction analysis between FLJ13397 clone-derived protein and compounds
Assay type: binding
Procedure: BP-reaction was performed on human full-length cDNA clone and the cloning vector Gateway pDONR201 by the PCR cloning method using the Invitrogen Gateway system to yield an entry clone. LR-reaction was performed on this entry clone with the destination vector pDEST17 (Gateway System) and LR Clonase at 25° C. for 60 minutes to yield an expression plasmid. Escherichia coli competent cell BL21star(DE3)pLysS were transformed with this expression plasmid, a clone incorporating the expression vector was selected, and a frozen stock was prepared. The transformant was inoculated into LB medium and precultured, after which it was transferred into SB medium and cultured to induce the expression by IPTG, and the cells were stored frozen.
A human full-length cDNA clone was expressed as a protein with an N-terminal His tag. This clone was purified using BioRobot 8000 (Qiagen) or ACTA Crystal (Amersham). […] In the purification with ACTA Crystal, affinity purification using a HisTrap HP column was followed by gel filtration purification using the Gel Filtration Column HiLoad 16/60 or a 10/30 Superdex 75 prep grade column. The purified fraction was used for interaction analysis after being subjected to SDS-PAGE to verify the estimated molecular weight and purity.
To analyze the interactions between commonly used drugs and proteins expressed from human full-length cDNA clones while keeping both the proteins and the compounds in non-modified, non-immobilized state, size exclusion chromatography (SEC) and mass analysis were used in combination (FIGS. 1 and 2). The specific procedures are shown below.
The compound-protein mixture prepared in step 1 was subjected to chromatography using an SEC column, the compound and the protein were separated by SEC, and the bound compound or compound that interacted with the protein in the protein fraction was analyzed using a mass analyzer.
Protein concentrations were measured using BCA Protein Assay (PIERCE), in consideration of the purity calculated by SDS-PAGE.
Mass analysis was performed using LCQ DECA XP (Thermoelectron) or Q-TOFmicro (Micromass), equipped with an ESI probe. The LC pump used was Agilent 1100 (Yokogawa Analytical Systems), and the autosampler used was HTC-PAL (CTC Analytics) equipped with a cooling stacker.
In the SEC method using a 384-well spin column, Unifilter 100 (Whatman), packed with 10 μL (dry volume) of Bio-Gel P6 (BIO-RAD) and swollen with milliQ water, was used as the SEC column. […] The SEC spin column was mounted on an acetonitrile-aliquoted 384-well U-bottom plate and centrifuged; the SEC spin column filtrate, which is a protein fraction, was retrieved in 50% acetonitrile. The protein precipitate produced by the acetonitrile was removed via centrifugation and filtration for protein removal; the resulting filtrate was concentrated by centrifugation and re-dissolved in 10 μL of 50% methanol to obtain a mass analysis sample. The mobile phase supplied to the mass analyzer was 0.1% formic acid/50% methanol solution in the positive ion mode, and 0.1% ammonia/50% methanol solution in the negative ion mode; these mobile phases were used at a flow rate of 40 μL/min. 2-μL of mass analysis samples were injected using an autosampler at 2-Minute intervals; the mass spectral intensity of the compound was measured to obtain the spectral intensity of the pharmaceutical compound contained in the SEC spin column filtrate (protein fraction eluted from SEC).

[1] = compound 1 μM, protein 0 μM (protein-free reference)
[2] = compound 1 μM, protein 23.75 μM
[3] = compound 10 μM, protein 0 μM (protein-free reference)
[4] = compound 10 μM, protein 23.75 μM
[5] = compound 10 μM, protein 47.5 μM
[6] = compound 100 μM, protein 0 μM (protein-free reference)
[7] = compound 100 μM, protein 23.75 μM
[8] = compound 100 μM, protein 47.5 μM
[9] = compound 250 μM, protein 0 μM (protein-free reference)
[10] = compound 250 μM, protein 23.75 μM
[11] = compound 250 μM, protein 47.5 μM

CC[C@@H](C(=O)[C@@H](C)[C@@H](O)[C@H](C)CCc1ccc(C)c(O)c1C(=O)O)[C@H]1O[C@](CC)([C@H]2CC[C@](O)(CC)[C@H](C)O2)C[C@@H]1C [Lasalocid sodium salt]
spectrum intensity of the extracted mass range (compound in SEC spin column filtrate) [1]: 9674294 | spectrum intensity of the extracted mass range (compound in SEC spin column filtrate) [2]: 11601595 | spectrum intensity of the extracted mass range (compound in SEC spin column filtrate) (compound 1 μM, protein 47.5 μM): 10467838 | spectrum intensity of the extracted mass range (compound in SEC spin column filtrate) [3]: 13154726 | spectrum intensity of the extracted mass range (compound in SEC spin column filtrate) [4]: 20062681 | spectrum intensity of the extracted mass range (compound in SEC spin column filtrate) [5]: 46504126 | spectrum intensity of the extracted mass range (compound in SEC spin column filtrate) [6]: 945932706 | spectrum intensity of the extracted mass range (compound in SEC spin column filtrate) [7]: 2538387120 | spectrum intensity of the extracted mass range (compound in SEC spin column filtrate) [8]: 3226817361 | spectrum intensity of the extracted mass range (compound in SEC spin column filtrate) [9]: 2174989976 | spectrum intensity of the extracted mass range (compound in SEC spin column filtrate) [10]: 9287976762 | spectrum intensity of the extracted mass range (compound in SEC spin column filtrate) [11]: 9802098210

CCCSc1ccc2nc(NC(=O)OC)[nH]c2c1 [Albendazole]
spectrum intensity of the extracted mass range (compound in SEC spin column filtrate) [1]: 99130 | spectrum intensity of the extracted mass range (compound in SEC spin column filtrate) [2]: 290428 | spectrum intensity of the extracted mass range (compound in SEC spin column filtrate) (compound 1 μM, protein 47.5 μM): 247973 | spectrum intensity of the extracted mass range (compound in SEC spin column filtrate) [3]: 25263 | spectrum intensity of the extracted mass range (compound in SEC spin column filtrate) [4]: 1117765 | spectrum intensity of the extracted mass range (compound in SEC spin column filtrate) [5]: 603904 | spectrum intensity of the extracted mass range (compound in SEC spin column filtrate) [6]: 221630 | spectrum intensity of the extracted mass range (compound in SEC spin column filtrate) [7]: 6713076 | spectrum intensity of the extracted mass range (compound in SEC spin column filtrate) [8]: 3946588 | spectrum intensity of the extracted mass range (compound in SEC spin column filtrate) [9]: 151791 | spectrum intensity of the extracted mass range (compound in SEC spin column filtrate) [10]: 18185332 | spectrum intensity of the extracted mass range (compound in SEC spin column filtrate) [11]: 55508710

Nc1nc2ccccc2[nH]1 [2-Aminobenzimidazole]
spectrum intensity of the extracted mass range (compound in SEC spin column filtrate) [1]: 276565 | spectrum intensity of the extracted mass range (compound in SEC spin column filtrate) [2]: 42562 | spectrum intensity of the extracted mass range (compound in SEC spin column filtrate) (compound 1 μM, protein 47.5 μM): 152781 | spectrum intensity of the extracted mass range (compound in SEC spin column filtrate) [3]: 153479 | spectrum intensity of the extracted mass range (compound in SEC spin column filtrate) [4]: 69826 | spectrum intensity of the extracted mass range (compound in SEC spin column filtrate) [5]: 71963 | spectrum intensity of the extracted mass range (compound in SEC spin column filtrate) [6]: 437739 | spectrum intensity of the extracted mass range (compound in SEC spin column filtrate) [7]: 1819414 | spectrum intensity of the extracted mass range (compound in SEC spin column filtrate) [8]: 2080493 | spectrum intensity of the extracted mass range (compound in SEC spin column filtrate) [9]: 2837732 | spectrum intensity of the extracted mass range (compound in SEC spin column filtrate) [10]: 7370524 | spectrum intensity of the extracted mass range (compound in SEC spin column filtrate) [11]: 8155388

CCC[S+]([O-])c1ccc2[nH]c(NC(=O)OC)nc2c1 (stereo not drawn) [Albendazole Sulfoxide]
spectrum intensity of the extracted mass range (compound in SEC spin column filtrate) [1]: 1514429 | spectrum intensity of the extracted mass range (compound in SEC spin column filtrate) [2]: 1280086 | spectrum intensity of the extracted mass range (compound in SEC spin column filtrate) (compound 1 μM, protein 47.5 μM): 1361540 | spectrum intensity of the extracted mass range (compound in SEC spin column filtrate) [3]: 11869270 | spectrum intensity of the extracted mass range (compound in SEC spin column filtrate) [4]: 13449119 | spectrum intensity of the extracted mass range (compound in SEC spin column filtrate) [5]: 14241157 | spectrum intensity of the extracted mass range (compound in SEC spin column filtrate) [6]: 125971079 | spectrum intensity of the extracted mass range (compound in SEC spin column filtrate) [7]: 208777846 | spectrum intensity of the extracted mass range (compound in SEC spin column filtrate) [8]: 241218904 | spectrum intensity of the extracted mass range (compound in SEC spin column filtrate) [9]: 460535649 | spectrum intensity of the extracted mass range (compound in SEC spin column filtrate) [10]: 532900104 | spectrum intensity of the extracted mass range (compound in SEC spin column filtrate) [11]: 372564422

COC(=O)Nc1nc2ccccc2[nH]1 [Carbendazim]
spectrum intensity of the extracted mass range (compound in SEC spin column filtrate) [1]: 20852664 | spectrum intensity of the extracted mass range (compound in SEC spin column filtrate) [2]: 16443963 | spectrum intensity of the extracted mass range (compound in SEC spin column filtrate) (compound 1 μM, protein 47.5 μM): 24660680 | spectrum intensity of the extracted mass range (compound in SEC spin column filtrate) [3]: 22203544 | spectrum intensity of the extracted mass range (compound in SEC spin column filtrate) [4]: 21673683 | spectrum intensity of the extracted mass range (compound in SEC spin column filtrate) [5]: 32996198 | spectrum intensity of the extracted mass range (compound in SEC spin column filtrate) [6]: 20562919 | spectrum intensity of the extracted mass range (compound in SEC spin column filtrate) [7]: 35342827 | spectrum intensity of the extracted mass range (compound in SEC spin column filtrate) [8]: 65044479 | spectrum intensity of the extracted mass range (compound in SEC spin column filtrate) [9]: 34177767 | spectrum intensity of the extracted mass range (compound in SEC spin column filtrate) [10]: 129995989 | spectrum intensity of the extracted mass range (compound in SEC spin column filtrate) [11]: 148437211

OC(c1ccccc1)(c1ccccc1)C1CCNCC1 [α,α-Diphenyl-4-piperidinomethanol]
spectrum intensity of the extracted mass range (compound in SEC spin column filtrate) [1]: 1354498 | spectrum intensity of the extracted mass range (compound in SEC spin column filtrate) [2]: 1217276 | spectrum intensity of the extracted mass range (compound in SEC spin column filtrate) (compound 1 μM, protein 47.5 μM): 1961004 | spectrum intensity of the extracted mass range (compound in SEC spin column filtrate) [3]: 14109120 | spectrum intensity of the extracted mass range (compound in SEC spin column filtrate) [4]: 12131847 | spectrum intensity of the extracted mass range (compound in SEC spin column filtrate) [5]: 15743409 | spectrum intensity of the extracted mass range (compound in SEC spin column filtrate) [6]: 106849236 | spectrum intensity of the extracted mass range (compound in SEC spin column filtrate) [7]: 219345185 | spectrum intensity of the extracted mass range (compound in SEC spin column filtrate) [8]: 287013305 | spectrum intensity of the extracted mass range (compound in SEC spin column filtrate) [9]: 400374746 | spectrum intensity of the extracted mass range (compound in SEC spin column filtrate) [10]: 620399620 | spectrum intensity of the extracted mass range (compound in SEC spin column filtrate) [11]: 1037919

Nc1nc2ccccc2n1Cc1ccccc1 [2-Amino-1-Benzylbenzimidazole, 2-Amino-1-benzylbenzimidazole]
spectrum intensity of the extracted mass range (compound in SEC spin column filtrate) [1]: 5598524 | spectrum intensity of the extracted mass range (compound in SEC spin column filtrate) [2]: 1659600 | spectrum intensity of the extracted mass range (compound in SEC spin column filtrate) (compound 1 μM, protein 47.5 μM): 2958392 | spectrum intensity of the extracted mass range (compound in SEC spin column filtrate) [3]: 4341825 | spectrum intensity of the extracted mass range (compound in SEC spin column filtrate) [4]: 4509110 | spectrum intensity of the extracted mass range (compound in SEC spin column filtrate) [5]: 7550402 | spectrum intensity of the extracted mass range (compound in SEC spin column filtrate) [6]: 12703620 | spectrum intensity of the extracted mass range (compound in SEC spin column filtrate) [7]: 32945929 | spectrum intensity of the extracted mass range (compound in SEC spin column filtrate) [8]: 42993061 | spectrum intensity of the extracted mass range (compound in SEC spin column filtrate) [9]: 39100216 | spectrum intensity of the extracted mass range (compound in SEC spin column filtrate) [10]: 125775631 | spectrum intensity of the extracted mass range (compound in SEC spin column filtrate) [11]: 559844
